Results on 2 molecules are retold here after article PMC7146755, “Structure-Guided Design and In-Cell Target Profiling of a Cell-Active Target Engagement Probe for PARP Inhibitors” (ACS Chemical Biology, 2020).

Broadly, the IC50 is the concentration that inhibits the measured activity by half.

Assay [1] concerns the target T1, GST-tagged PARP6 (recombinant) (Homo sapiens, UniProt Q2NL67).
T1 construct: recombinant GST fusion with HRV3C site in the linker, 98 kDa; intact PARP6 71 kDa after cleavage
The assay is described as follows: competition of PARPYnD photoaffinity labeling, in-gel fluorescence and immunoblot. Type of assay: biochemical. The following applies: recombinant GST-PARP6 spiked into MDA-MB-468 lysate; […] nm UV. On the technique in general: Immunoblotting shows a protein as a band on a membrane.

In a further assay the target is T2, PARP1 (recombinant) (Homo sapiens, UniProt P09874).
T2 construct: recombinant
The assay is described as follows: fluorescence polarization competition binding. (Fluorescence polarisation rises when a labelled molecule tumbles more slowly, as on binding a larger partner.)

For assay [2], the target named is T1, GST-tagged PARP6 (recombinant). The assay is described as follows: fluorescence polarization competition binding. The source says:
fluorescence polarization competition binding on GST-tagged PARP6 (recombinant) | IC50 of PARPYnD for PARP6 as determined by the in vitro binding assay

Another assay concerns the target T3, PARP2 (recombinant) (Homo sapiens, UniProt Q9UGN5).
T3 construct: recombinant
The assay is described as follows: fluorescence polarization competition binding.

T1 sequence (Q2NL67 whole entry, the tested form may be a part): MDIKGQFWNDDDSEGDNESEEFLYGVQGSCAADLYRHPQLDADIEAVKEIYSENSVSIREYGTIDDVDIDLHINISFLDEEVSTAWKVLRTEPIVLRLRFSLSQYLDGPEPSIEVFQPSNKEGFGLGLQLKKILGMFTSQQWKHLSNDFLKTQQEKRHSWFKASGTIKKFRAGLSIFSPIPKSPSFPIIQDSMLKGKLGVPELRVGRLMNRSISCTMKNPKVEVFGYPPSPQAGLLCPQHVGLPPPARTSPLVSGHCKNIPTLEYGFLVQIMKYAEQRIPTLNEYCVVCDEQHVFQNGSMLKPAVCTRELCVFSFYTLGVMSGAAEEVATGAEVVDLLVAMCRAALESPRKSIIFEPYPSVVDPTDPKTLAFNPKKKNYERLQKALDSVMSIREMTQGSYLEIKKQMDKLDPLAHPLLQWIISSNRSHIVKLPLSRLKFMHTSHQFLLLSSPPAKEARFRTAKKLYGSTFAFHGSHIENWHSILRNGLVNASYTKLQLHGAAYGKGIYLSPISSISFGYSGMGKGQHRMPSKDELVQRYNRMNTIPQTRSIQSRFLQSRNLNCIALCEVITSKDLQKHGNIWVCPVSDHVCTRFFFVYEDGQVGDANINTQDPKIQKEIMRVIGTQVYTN
T3 sequence (Q9UGN5 whole entry): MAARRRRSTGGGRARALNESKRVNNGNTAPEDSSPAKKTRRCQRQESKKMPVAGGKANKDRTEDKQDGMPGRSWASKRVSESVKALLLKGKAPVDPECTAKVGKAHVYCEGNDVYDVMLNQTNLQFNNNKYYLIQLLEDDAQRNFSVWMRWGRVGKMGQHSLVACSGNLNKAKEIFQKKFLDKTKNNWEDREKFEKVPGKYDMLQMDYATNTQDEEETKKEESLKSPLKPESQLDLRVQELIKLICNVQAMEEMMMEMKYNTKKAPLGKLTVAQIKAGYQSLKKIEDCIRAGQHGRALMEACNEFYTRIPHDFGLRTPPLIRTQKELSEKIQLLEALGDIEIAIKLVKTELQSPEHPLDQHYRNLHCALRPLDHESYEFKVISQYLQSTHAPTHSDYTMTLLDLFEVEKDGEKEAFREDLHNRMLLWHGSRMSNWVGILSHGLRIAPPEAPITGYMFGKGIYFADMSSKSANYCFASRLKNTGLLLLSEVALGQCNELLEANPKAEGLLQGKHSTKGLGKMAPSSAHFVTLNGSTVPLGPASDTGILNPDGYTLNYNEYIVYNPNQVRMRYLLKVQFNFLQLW
T2 sequence (P09874 2-1014): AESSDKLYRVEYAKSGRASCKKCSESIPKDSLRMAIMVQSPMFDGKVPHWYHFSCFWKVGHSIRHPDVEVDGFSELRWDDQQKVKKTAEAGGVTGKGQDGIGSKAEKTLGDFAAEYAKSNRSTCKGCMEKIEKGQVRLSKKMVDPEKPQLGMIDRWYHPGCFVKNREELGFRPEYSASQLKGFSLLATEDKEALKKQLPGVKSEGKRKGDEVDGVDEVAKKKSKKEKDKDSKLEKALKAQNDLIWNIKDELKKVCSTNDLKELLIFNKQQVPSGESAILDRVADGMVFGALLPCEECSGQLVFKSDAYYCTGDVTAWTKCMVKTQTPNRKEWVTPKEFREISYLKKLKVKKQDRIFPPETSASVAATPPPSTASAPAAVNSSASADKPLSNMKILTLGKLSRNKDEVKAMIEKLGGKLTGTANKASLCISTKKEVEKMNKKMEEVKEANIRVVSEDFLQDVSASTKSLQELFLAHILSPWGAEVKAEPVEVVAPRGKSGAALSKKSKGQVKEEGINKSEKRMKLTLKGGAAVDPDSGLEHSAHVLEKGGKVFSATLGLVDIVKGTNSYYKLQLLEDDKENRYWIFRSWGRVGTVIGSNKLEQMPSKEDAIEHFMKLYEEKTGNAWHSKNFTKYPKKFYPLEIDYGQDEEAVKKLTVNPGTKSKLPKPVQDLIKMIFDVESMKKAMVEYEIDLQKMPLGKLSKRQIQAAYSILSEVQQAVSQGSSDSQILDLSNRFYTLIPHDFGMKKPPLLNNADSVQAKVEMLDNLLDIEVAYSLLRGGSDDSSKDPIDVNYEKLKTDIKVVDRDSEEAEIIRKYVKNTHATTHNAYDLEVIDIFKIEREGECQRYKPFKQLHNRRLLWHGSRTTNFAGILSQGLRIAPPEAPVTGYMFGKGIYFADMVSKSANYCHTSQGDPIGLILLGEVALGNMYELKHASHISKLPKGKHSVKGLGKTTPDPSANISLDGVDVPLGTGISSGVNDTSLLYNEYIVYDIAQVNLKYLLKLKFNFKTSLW

In the case of `C[C@H]1Cn2c(nnc2C(C)(F)F)CN1C(=O)c1cccc(C(F)(F)c2n[nH]c(=O)c3ccccc23)c1` [AZ0108], in assay [1], the “competition of PARPYnD photoaffinity labeling, in-gel fluorescence and immunoblo” value is listed as “which was depleted by PARP6 inhibitor AZ0108”.

For the molecule `C#CCCC1(CCC(=O)Nc2cnc(N3CCN(C(=O)c4cccc(Cc5n[nH]c(=O)c6ccccc56)c4)CC3)c(C#N)c2)N=N1` [PARPYnD], the values for the IC50 (on PARP1 (recombinant); in assay [2]; on PARP2 (recombinant)) were 38 nM, 230 nM and 6 nM, respectively.
